Measurements: the kinase profiling compilation of Christmann-Franck et al. (2016)

Experiments:
Test in all cases: KINOMEscan competition binding
Details in all cases: compound 10.0 µM
IRAK1 (human) = IRAK1 (human) (UniProt P51617)
PRKCI (human) = PRKCI (human) (UniProt P41743)
CDKL1 (human) = CDKL1 (human) (UniProt Q00532)
HIPK4 (human) = HIPK4 (human) (UniProt Q8NE63)
RIPK2 (human) = RIPK2 (human) (UniProt O43353)
MAPK3 (human) = MAPK3 (human) (UniProt P27361)
PRKD1 (human) = PRKD1 (human) (UniProt Q15139)
PRKAA2 (human) = PRKAA2 (human) (UniProt P54646)
MKNK2 (human) = MKNK2 (human) (UniProt Q9HBH9)
[1] = system: EGFR (human), P00533 [A750P; 747-749 del]
DSTYK (human) = DSTYK (human) (UniProt Q6XUX3)
ANKK1 (human) = ANKK1 (human) (UniProt Q8NFD2)
DDR1 (human) = DDR1 (human) (UniProt Q08345)
LIMK2 (human) = LIMK2 (human) (UniProt P53671)
TNK2 (human) = TNK2 (human) (UniProt Q07912)
CAMK2D (human) = CAMK2D (human) (UniProt Q13557)
SRPK2 (human) = SRPK2 (human) (UniProt P78362)
FLT1 (human) = FLT1 (human) (UniProt P17948)
PAK7 (human) = PAK7 (human) (UniProt Q9P286)
PRKAA1 (human) = PRKAA1 (human) (UniProt Q13131)
AURKC (human) = AURKC (human) (UniProt Q9UQB9)
YES1 (human) = YES1 (human) (UniProt P07947)
ACVR2A (human) = ACVR2A (human) (UniProt P27037)
LRRK2 (human) = LRRK2 (human) (UniProt Q5S007)
MAP2K2 (human) = MAP2K2 (human) (UniProt P36507)
MAP3K4 (human) = MAP3K4 (human) (UniProt Q9Y6R4)
EPHB6 (human) = EPHB6 (human) (UniProt O15197)
KDR (human) = KDR (human) (UniProt P35968)
TYRO3 (human) = TYRO3 (human) (UniProt Q06418)
MAP2K4 (human) = MAP2K4 (human) (UniProt P45985)
DYRK1B (human) = DYRK1B (human) (UniProt Q9Y463)
MAPK8 (human) = MAPK8 (human) (UniProt P45983)
NEK9 (human) = NEK9 (human) (UniProt Q8TD19)
MAP2K7 (human) = MAP2K7 (human) (UniProt O14733)
CPK1 (P.falciparum) = system: CPK1 (P.falciparum)
PKN1 (human) = PKN1 (human) (UniProt Q16512)
PIK3CG (human) = PIK3CG (human) (UniProt P48736)
FLT4 (human) = FLT4 (human) (UniProt P35916)
RIOK1 (human) = RIOK1 (human) (UniProt Q9BRS2)
PIK3C2G (human) = PIK3C2G (human) (UniProt O75747)

Chain of TYRO3 (human) (Q06418 whole entry, looked up): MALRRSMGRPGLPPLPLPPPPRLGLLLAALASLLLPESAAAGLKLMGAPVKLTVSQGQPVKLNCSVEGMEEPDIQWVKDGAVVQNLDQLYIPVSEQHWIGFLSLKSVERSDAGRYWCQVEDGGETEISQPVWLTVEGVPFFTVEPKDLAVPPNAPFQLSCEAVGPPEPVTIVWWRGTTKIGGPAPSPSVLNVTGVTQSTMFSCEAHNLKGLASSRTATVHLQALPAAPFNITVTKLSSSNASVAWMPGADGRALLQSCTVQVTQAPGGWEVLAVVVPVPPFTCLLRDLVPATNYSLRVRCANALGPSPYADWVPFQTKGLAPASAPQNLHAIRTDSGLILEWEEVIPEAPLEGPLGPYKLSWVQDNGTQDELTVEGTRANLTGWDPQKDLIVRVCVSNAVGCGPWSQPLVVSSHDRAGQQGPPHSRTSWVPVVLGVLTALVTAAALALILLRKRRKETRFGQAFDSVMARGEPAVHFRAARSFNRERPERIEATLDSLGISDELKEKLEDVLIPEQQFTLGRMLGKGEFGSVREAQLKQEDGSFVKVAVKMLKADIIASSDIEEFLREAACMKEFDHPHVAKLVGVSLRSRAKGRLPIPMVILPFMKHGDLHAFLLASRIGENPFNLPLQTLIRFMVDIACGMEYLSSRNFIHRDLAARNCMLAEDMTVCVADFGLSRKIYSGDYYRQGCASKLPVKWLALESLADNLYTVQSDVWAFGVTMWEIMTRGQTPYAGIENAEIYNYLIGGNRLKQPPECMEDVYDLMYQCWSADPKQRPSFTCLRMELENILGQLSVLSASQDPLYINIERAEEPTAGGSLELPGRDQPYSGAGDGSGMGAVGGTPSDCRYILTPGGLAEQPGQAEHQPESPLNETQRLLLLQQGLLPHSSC
Chain of PRKD1 (human) (Q15139 whole entry, looked up): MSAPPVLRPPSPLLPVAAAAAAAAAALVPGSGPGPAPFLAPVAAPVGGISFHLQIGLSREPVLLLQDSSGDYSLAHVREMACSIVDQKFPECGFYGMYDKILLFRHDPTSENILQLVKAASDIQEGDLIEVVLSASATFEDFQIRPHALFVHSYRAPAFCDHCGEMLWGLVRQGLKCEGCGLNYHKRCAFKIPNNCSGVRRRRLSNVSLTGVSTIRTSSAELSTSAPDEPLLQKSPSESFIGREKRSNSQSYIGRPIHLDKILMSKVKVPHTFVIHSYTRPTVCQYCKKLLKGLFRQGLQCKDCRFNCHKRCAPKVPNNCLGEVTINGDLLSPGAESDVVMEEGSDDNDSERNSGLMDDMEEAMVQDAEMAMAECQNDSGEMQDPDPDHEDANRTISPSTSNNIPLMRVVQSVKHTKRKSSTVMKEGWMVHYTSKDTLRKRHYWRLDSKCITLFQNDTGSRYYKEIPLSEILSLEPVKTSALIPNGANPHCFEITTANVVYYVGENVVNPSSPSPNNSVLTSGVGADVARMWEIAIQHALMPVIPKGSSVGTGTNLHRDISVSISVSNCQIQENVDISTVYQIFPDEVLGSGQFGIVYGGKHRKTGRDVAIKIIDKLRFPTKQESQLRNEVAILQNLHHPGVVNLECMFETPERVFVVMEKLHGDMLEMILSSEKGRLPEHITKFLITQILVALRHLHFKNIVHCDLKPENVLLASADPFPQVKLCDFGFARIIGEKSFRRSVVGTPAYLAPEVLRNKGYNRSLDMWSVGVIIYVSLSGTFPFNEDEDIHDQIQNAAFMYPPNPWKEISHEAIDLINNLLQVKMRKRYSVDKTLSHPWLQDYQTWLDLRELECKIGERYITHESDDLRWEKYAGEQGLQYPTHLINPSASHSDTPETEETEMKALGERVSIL
Chain of FLT4 (human) (P35916 whole entry, looked up): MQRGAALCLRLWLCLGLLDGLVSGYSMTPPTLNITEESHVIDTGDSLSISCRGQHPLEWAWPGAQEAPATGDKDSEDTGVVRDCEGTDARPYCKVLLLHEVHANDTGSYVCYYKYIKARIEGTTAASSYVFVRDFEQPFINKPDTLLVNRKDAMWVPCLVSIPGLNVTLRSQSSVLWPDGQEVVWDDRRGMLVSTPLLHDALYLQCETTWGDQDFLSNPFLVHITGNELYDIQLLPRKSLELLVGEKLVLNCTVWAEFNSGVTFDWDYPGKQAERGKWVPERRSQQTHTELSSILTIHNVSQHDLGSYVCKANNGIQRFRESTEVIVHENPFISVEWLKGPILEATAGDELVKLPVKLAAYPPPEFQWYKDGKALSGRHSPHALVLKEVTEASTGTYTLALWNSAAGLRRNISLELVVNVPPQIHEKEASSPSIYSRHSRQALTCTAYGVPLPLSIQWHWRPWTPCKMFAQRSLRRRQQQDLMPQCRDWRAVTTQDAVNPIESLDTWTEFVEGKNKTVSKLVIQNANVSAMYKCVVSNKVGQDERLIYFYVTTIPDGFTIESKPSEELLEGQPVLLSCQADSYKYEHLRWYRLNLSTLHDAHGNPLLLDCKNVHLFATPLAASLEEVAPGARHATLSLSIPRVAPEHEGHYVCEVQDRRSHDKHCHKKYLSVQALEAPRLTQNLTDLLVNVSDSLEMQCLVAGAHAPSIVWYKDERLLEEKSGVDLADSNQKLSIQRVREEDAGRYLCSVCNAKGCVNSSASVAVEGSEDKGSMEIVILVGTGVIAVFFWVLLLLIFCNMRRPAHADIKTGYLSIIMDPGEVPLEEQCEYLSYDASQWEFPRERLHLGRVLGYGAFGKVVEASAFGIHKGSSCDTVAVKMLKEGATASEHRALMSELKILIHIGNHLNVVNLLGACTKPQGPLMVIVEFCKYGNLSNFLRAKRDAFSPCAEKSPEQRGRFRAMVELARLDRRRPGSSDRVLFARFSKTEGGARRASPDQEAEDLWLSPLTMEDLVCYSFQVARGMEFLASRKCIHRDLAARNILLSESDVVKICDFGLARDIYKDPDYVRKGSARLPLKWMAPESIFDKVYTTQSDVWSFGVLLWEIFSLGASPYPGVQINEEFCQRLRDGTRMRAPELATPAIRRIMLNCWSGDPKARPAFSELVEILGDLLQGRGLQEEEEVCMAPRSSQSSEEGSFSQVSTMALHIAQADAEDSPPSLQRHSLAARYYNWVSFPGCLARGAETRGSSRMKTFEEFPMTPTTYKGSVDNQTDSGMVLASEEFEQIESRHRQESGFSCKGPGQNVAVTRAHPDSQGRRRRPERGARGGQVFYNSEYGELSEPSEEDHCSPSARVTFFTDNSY
Chain of ANKK1 (human) (Q8NFD2 whole entry, looked up): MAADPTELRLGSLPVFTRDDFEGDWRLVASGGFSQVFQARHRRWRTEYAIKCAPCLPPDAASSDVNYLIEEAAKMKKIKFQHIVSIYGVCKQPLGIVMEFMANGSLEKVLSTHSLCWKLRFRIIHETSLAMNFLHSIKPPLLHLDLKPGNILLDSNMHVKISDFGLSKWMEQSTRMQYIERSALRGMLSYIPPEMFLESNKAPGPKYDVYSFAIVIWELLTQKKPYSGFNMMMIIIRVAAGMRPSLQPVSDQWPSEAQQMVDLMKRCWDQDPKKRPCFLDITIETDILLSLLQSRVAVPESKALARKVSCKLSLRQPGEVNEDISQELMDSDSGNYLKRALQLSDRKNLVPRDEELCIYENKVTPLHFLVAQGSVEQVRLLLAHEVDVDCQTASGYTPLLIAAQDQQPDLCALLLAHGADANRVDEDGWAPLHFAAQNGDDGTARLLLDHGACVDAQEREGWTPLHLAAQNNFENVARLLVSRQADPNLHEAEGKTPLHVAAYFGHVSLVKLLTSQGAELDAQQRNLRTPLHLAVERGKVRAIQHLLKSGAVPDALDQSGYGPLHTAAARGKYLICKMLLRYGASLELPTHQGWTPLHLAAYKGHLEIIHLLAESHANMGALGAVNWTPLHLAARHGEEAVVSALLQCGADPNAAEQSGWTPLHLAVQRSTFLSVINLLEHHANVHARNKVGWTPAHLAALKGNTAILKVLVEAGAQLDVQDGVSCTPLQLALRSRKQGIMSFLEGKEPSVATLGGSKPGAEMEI
Chain of PRKCI (human) (P41743 whole entry, looked up): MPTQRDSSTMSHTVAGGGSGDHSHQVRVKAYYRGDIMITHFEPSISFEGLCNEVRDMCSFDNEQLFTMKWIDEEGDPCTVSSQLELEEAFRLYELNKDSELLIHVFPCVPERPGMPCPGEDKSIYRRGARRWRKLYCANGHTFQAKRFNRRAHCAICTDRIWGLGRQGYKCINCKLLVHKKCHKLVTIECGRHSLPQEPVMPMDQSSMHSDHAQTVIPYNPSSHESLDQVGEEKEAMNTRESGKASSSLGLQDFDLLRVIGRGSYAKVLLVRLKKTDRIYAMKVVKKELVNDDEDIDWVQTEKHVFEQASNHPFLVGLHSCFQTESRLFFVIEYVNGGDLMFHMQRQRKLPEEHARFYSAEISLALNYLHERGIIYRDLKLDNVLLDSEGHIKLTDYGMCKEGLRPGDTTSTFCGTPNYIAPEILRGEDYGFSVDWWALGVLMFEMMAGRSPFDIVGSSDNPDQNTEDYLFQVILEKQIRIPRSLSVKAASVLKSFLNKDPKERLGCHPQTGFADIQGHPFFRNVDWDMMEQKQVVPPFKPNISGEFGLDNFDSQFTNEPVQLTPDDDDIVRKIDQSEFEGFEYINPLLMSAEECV
Chain of MAPK3 (human) (P27361 whole entry, looked up): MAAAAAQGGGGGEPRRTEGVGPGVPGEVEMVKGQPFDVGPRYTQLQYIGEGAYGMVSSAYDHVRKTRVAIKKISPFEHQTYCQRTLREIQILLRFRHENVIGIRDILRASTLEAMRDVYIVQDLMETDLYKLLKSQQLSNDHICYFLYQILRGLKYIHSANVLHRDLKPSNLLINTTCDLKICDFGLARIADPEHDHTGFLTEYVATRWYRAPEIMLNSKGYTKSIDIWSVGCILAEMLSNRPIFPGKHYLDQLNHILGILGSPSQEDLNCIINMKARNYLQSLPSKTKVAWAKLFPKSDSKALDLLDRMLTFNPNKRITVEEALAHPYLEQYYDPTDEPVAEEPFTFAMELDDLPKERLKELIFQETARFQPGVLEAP

SMILES	kinase still bound, per cent of control (IRAK1 (human)) [%]	kinase still bound, per cent of control (PRKCI (human)) [%]	kinase still bound, per cent of control (CDKL1 (human)) [%]	kinase still bound, per cent of control (HIPK4 (human)) [%]	kinase still bound, per cent of control (RIPK2 (human)) [%]	kinase still bound, per cent of control (MAPK3 (human)) [%]	kinase still bound, per cent of control (PRKD1 (human)) [%]	kinase still bound, per cent of control (PRKAA2 (human)) [%]	kinase still bound, per cent of control (MKNK2 (human)) [%]	kinase still bound, per cent of control [1] [%]	kinase still bound, per cent of control (DSTYK (human)) [%]	kinase still bound, per cent of control (ANKK1 (human)) [%]	kinase still bound, per cent of control (DDR1 (human)) [%]	kinase still bound, per cent of control (LIMK2 (human)) [%]	kinase still bound, per cent of control (TNK2 (human)) [%]	kinase still bound, per cent of control (CAMK2D (human)) [%]	kinase still bound, per cent of control (SRPK2 (human)) [%]	kinase still bound, per cent of control (FLT1 (human)) [%]	kinase still bound, per cent of control (PAK7 (human)) [%]	kinase still bound, per cent of control (PRKAA1 (human)) [%]	other results
C=CC(=O)Nc1ccc(C(=O)c2sc(Nc3ccc(N4CCN(C)CC4)cc3OC)nc2N)cc1	41	26	100	4.6	100	100	39	100	29	61	4.7	100	100	100	82	2.1	95	97	71	100	kinase still bound, per cent of control (AURKC (human)): 68%; kinase still bound, per cent of control (YES1 (human)): 86%; kinase still bound, per cent of control (ACVR2A (human)): 100%; kinase still bound, per cent of control (LRRK2 (human)): 5.2%; kinase still bound, per cent of control (MAP2K2 (human)): 89%; kinase still bound, per cent of control (MAP3K4 (human)): 100%; kinase still bound, per cent of control (EPHB6 (human)): 64%; kinase still bound, per cent of control (KDR (human)): 100%; kinase still bound, per cent of control (TYRO3 (human)): 100%; kinase still bound, per cent of control (MAP2K4 (human)): 24%; kinase still bound, per cent of control (DYRK1B (human)): 2.6%; kinase still bound, per cent of control (MAPK8 (human)): 4.2%; kinase still bound, per cent of control (NEK9 (human)): 100%; kinase still bound, per cent of control (MAP2K7 (human)): 93%; kinase still bound, per cent of control (CPK1 (P.falciparum)): 74%; kinase still bound, per cent of control (PKN1 (human)): 97%; kinase still bound, per cent of control (PIK3CG (human)): 96%; kinase still bound, per cent of control (FLT4 (human)): 100%; kinase still bound, per cent of control (RIOK1 (human)): 37%; kinase still bound, per cent of control (PIK3C2G (human)): 100%
CNC(=O)Nc1ccc(-c2nc(N3CC4CCC(C3)O4)c3cnn(C4CCC5(CC4)OCCO5)c3n2)cc1	100	67	84	100	71	97	100	93	87	52	100	77	66	88	84	100	90	92	100	94	kinase still bound, per cent of control (AURKC (human)): 86%; kinase still bound, per cent of control (YES1 (human)): 97%; kinase still bound, per cent of control (ACVR2A (human)): 78%; kinase still bound, per cent of control (LRRK2 (human)): 82%; kinase still bound, per cent of control (MAP2K2 (human)): 100%; kinase still bound, per cent of control (MAP3K4 (human)): 86%; kinase still bound, per cent of control (EPHB6 (human)): 83%; kinase still bound, per cent of control (KDR (human)): 76%; kinase still bound, per cent of control (TYRO3 (human)): 100%; kinase still bound, per cent of control (MAP2K4 (human)): 90%; kinase still bound, per cent of control (DYRK1B (human)): 100%; kinase still bound, per cent of control (MAPK8 (human)): 91%; kinase still bound, per cent of control (NEK9 (human)): 100%; kinase still bound, per cent of control (MAP2K7 (human)): 100%; kinase still bound, per cent of control (CPK1 (P.falciparum)): 86%; kinase still bound, per cent of control (PKN1 (human)): 100%; kinase still bound, per cent of control (PIK3CG (human)): 72%; kinase still bound, per cent of control (FLT4 (human)): 88%; kinase still bound, per cent of control (RIOK1 (human)): 91%; kinase still bound, per cent of control (PIK3C2G (human)): 22%
